Assay results published in article PMC10449633 (Nature Chemical Biology, 2023).
“And” between values parts separate entries of the source, which are not always exact repeats. Equal values may be shown once. Read-outs that look alike come from different tables or passages of the source. Numbered stars: 1 amine (or outer) side, 2 acyl side, 3 side chain; on linkers, the order of the positions; unused ones are H or OH. Square brackets hold non-standard residues; d marks the D form. Peptide text beside a SMILES is read from it. ξ: configuration not given here. X1 = CN(C(Cc1cn(Cc2ccc(Br)cc2)c2ccccc12)C(=O)[*:2])[*:1]; ξAla(CF3) = NC(CC(F)(F)F)C(=O)O; X2 = N#CCCC(O[*:1])C(=O)[*:2]; NMeL = CN[CH](CC(C)C)C(=O)O; NMeA = CN[CH](C)C(=O)O

How the values were obtained:
Sec61 = target: T1, Sec61 (Homo sapiens, UniProt P61619); assay: cell-based; assay type: cell-based; conditions: for remaining activity at 0.000660151 µM: Drug nM (log10) 0.660151; for remaining activity at 0.00050805 µM: Drug nM (log10) -0.29409
T1 construct: endogenous in cells
T1 sequence (P61619 whole entry): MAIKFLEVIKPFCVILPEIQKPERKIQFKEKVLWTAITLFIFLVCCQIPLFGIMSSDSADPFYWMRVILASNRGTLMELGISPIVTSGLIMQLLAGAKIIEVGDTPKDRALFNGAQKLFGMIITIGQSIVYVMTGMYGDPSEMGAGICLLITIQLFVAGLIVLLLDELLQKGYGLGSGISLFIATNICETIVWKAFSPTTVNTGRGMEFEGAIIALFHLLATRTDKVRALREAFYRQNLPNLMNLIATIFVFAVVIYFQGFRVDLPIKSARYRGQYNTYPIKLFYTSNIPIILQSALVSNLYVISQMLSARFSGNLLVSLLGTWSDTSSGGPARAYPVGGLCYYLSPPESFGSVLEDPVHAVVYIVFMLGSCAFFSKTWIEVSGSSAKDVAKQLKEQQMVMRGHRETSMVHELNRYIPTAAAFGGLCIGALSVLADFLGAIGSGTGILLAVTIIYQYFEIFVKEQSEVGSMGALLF
T1 sequence (P60059 whole entry, further chain): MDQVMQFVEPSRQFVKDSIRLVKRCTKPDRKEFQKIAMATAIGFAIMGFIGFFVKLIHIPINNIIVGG
T1 sequence (P60468 whole entry, further chain): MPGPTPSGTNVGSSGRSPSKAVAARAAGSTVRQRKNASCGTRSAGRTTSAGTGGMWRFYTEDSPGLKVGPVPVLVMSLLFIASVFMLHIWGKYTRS

Sec61α = assay: Photo-cotransin (CT7) photo-affinity labeling competition, LMNG-solubilized ER microsomes; assay type: binding, sheep; conditions: excess competitor, LMNG-solubilized ER membranes
Excerpt: To understand the molecular basis of Sec61 inhibition by KZR-8445, we pursued structural investigations using single-particle cryo-EM. Our initial attempts to isolate cotransin-bound ribosome–Sec61 complexes with the commonly used detergent digitonin were not successful. Several other detergents were screened for retention of native-like cotransin binding by subjecting solubilized Sec61 to a cotransin photo-affinity labeling assay[15] (Extended Data Fig. 2a). This screen identified lauryl maltoside neopentyl glycol (LMNG), a lipid-mimetic detergent that permits maximal photo-cotransin binding, as indicated by specific crosslinking to the Sec61α subunit in LMNG-solubilized ER membranes.
Sheep pancreatic ER microsomes (SRM) were isolated according to the method described earlier[48],[49]. […] The labeled proteins were analyzed by SDS–PAGE and in-gel fluorescence followed by Western blotting using anti-Sec61α and anti-RPL18 antibodies. […]
Extended Data Fig. 2 Isolation and biochemical characterization of the inhibitor-bound ribosome-Sec61 (RNC) complexes. […] (c) Gel filtration profile of clarified detergent-solubilized sample fractions with measured absorbance at A260. […]

Sec61α Q294A = Sec61α Q294A (Canis lupus familiaris, UniProt P38377, Q294A); assay: Luciferase reporter assay in HEK293 cells expressing Sec61α Q294A; design: remaining activity: dose or concentration left out as unconfirmed; conditions: HEK293, 24 h, read-out: luciferase reporter activity (% of no-drug control), Q294A
Chain of Sec61α Q294A (P60059 whole entry): as the sequence (P60059 whole entry, further chain) above
Chain of Sec61α Q294A (P38377 whole entry Q294A): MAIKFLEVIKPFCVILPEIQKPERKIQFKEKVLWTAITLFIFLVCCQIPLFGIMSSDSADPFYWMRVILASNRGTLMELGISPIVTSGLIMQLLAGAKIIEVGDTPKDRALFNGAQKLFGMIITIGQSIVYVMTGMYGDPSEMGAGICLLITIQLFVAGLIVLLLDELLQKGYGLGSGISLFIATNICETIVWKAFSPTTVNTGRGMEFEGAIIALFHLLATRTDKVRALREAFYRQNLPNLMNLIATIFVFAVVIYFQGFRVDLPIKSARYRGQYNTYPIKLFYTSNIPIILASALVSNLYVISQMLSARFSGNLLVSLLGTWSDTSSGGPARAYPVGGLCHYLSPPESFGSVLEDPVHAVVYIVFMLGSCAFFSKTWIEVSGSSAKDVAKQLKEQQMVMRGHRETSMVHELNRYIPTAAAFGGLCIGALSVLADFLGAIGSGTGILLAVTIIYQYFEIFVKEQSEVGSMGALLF
Chain of Sec61α Q294A (P60468 whole entry, further chain): as the sequence (P60468 whole entry, further chain) above
Experimental: (§1) Data are mean values ± s.d. from n = 2 independent experiments.
(§2) HEK293T cells (0.3 × 10^6) were seeded per well of a six-well plate and incubated at 37 °C in 5% CO2 for 24 h to adhere. Each of the two wells was transfected with 1 µg of plasmid encoding a luciferase with the signal peptide of either VCAM1 or pPL using PEI in a 5:1 ratio, after which cells were returned to the incubator for a further 24 h. Transfected cells were then resuspended following trypsinization, cell count estimated using a TC20 Automated Cell Counter (BioRad) and diluted to seed a 96-well flat-bottom plate with 1.6 × 10^4 cells per well. […] Cells were then incubated for a further 24 h, after which the luciferase-containing media were transferred to a clean 96-well plate and stored at −20 °C. Luciferase activity of the media was estimated using a Gaussia-GLOW Juice Luciferase Assay kit from PJK Biotech GmbH as per the manufacturer’s instructions. Luminescence was measured using an EnSpire Multimode plate reader (PerkinElmer). Background luminescence from media placed in a well with neither cells nor drug was subtracted from all values, and measurements were calculated as a percentage of luminescence intensity of a well expressing the appropriate luciferase construct in the absence of any drug. Curves were fitted, and IC50 values were calculated using GraphPad Prism 8.
(§3) WT canine Sec61 was cloned into pcDNA5/FRT/TO (Thermo Fisher Scientific), and point mutations were generated using PCR. All mutants were sequence verified. HEK293 Flp-In T-REx cells (Thermo Fisher Scientific, R78007) were cultured in Dulbecco’s modified Eagle’s medium (Gibco) supplemented with 10% FBS (Gibco) at 37 °C in a humidified 5% CO2 atmosphere. Approximately 0.3 µg of pOG44 and 1 µg of targeting construct plasmids were mixed in 250 µl of OptiMEM (Thermo Fisher Scientific, 51985-026). A total of 3 µl (3 µg) Lipofectamine3000 transfection reagent was then added to the DNA mix and incubated at room temperature for 20 min, and the whole mixture was added to the cells. Cells were exposed to 100 µg ml^−^1 hygromycin B (Invitrogen) and 10 µg ml^−^1 blasticidin for 3–4 weeks until the appearance of resistant colonies. Colonies were expanded into T75 flasks and induced with doxycycline (Sigma-Aldrich, D9891) at a concentration of 1–5 µg ml^−^1 for 48 h. Cells were collected, and total RNA was extracted followed by cDNA amplification and sequencing of Sec61 with gene-specific PCR primers to confirm. Cells were then used for the luciferase reporter assays as above.
(§4) Data are mean values ± SD and are representative of n = 2 independent experiments.

[1] = test system: human peripheral blood mononuclear cells (PBMCs); assay: Cytokine secretion assay, stimulated human PBMCs (MSD U-PLEX); assay type: cell-based; conditions: for IC50: 24 h, tested 0.025–25,000 nM
SARS-CoV-2 = assay type: cell-based; conditions: for infectious virus particle production: 48 h
Sec61α R66I = Sec61α R66I (Canis lupus familiaris, UniProt P38377, R66I); assay: Luciferase reporter assay in HEK293 cells expressing Sec61α R66I; design: remaining activity: dose or concentration left out as unconfirmed
Chain of Sec61α R66I (P38377 whole entry R66I): as the sequence (P38377 whole entry Q294A) above, with R66I, A294Q counted along it
Chain of Sec61α R66I (P60059 whole entry, further chain): as the sequence (P60059 whole entry, further chain) above
Chain of Sec61α R66I (P60468 whole entry, further chain): as the sequence (P60468 whole entry, further chain) above
Experimental: as §1, §2, §3, §4

[2] = HEK-293T, 24 h, VCAM signal peptide, read-out: secreted luciferase activity (% of no-drug control)
[3] = HEK-293T, 24 h, pPL signal peptide, read-out: secreted luciferase activity (% of no-drug control)

**Q.** With CC(C)CC1NC(=O)C(Cc2cn(Cc3ccc(Br)cc3)c3ccccc23)N(C)C(=O)C(CC(F)(F)F)NC(=O)C(CC(C)C)N(C)C(=O)C(CC(F)(F)F)NC(=O)C(CCC#N)OC(=O)C(C)N(C)C1=O (stereo not shown) [KZR-8445] (cyclo([X1]L[NMeA][X2][ξAla(CF3)][NMeL][ξAla(CF3)]); configuration not given here) as the compound, how does the “potency against VCAM-GLuc relative to pPL-GLuc” value (Sec61; HEK293T, 24 h) read?
**A.** 20 fold

**Q.** And the remaining activity at 0.000660151 µM (Sec61; [2])?
**A.** 84%

**Q.** What about the remaining activity at 0.00050805 µM (Sec61; [2]) of the same compound?
**A.** 92.6%

**Q.** And the remaining activity at 0.000660151 µM (Sec61; [3])?
**A.** 93.6%

**Q.** And the remaining activity at 0.004 µM (Sec61; HEK-293T, 24 h, pPL signal peptide, Drug nM (log10) 4, read-out: secreted luciferase activity (% of no-drug control))?
**A.** 14%

**Q.** What about the remaining activity at 0.00050805 µM (Sec61; [3]) of the same compound?
**A.** 97.9%

**Q.** And the IC50 (Sec61; read-out: IC50, prolactin signal peptide in SP-GLuc secretion assay)?
**A.** ~1000 nM

**Q.** What about the “competition of photo-cotransin crosslinking to Sec61α” value (Sec61α) of the same compound?
**A.** efficiently competed

**Q.** What about the remaining activity at 0.00018303 µM (Sec61α Q294A; Drug nM (log10) 0.18303) of the same compound?
**A.** 80.7%

**Q.** And the remaining activity at 0.000660151 µM (Sec61α Q294A; Drug nM (log10) 0.660151)?
**A.** 67.2%

**Q.** What about the remaining activity at 0.00113727 µM (Sec61α Q294A; Drug nM (log10) 1.13727) of the same compound?
**A.** 44.1%

**Q.** What about the remaining activity (Sec61α Q294A; Drug nM (log10) 1.61439) of the same compound?
**A.** 22.4%

**Q.** And the remaining activity (Sec61α Q294A; Drug nM (log10) 2.09151)?
**A.** 11%

**Q.** What about the remaining activity (Sec61α Q294A; Drug nM (log10) 2.56864) of the same compound?
**A.** 4.26%

**Q.** What about the remaining activity (Sec61α Q294A; Drug nM (log10) 3.04576) of the same compound?
**A.** 2.2%

**Q.** What about the remaining activity (Sec61α Q294A; Drug nM (log10) 3.52288) of the same compound?
**A.** 1.85%

**Q.** And the remaining activity at 0.004 µM (Sec61α Q294A; Drug nM (log10) 4)?
**A.** 2.09%

**Q.** What about the remaining activity at 0.000508 µM (Sec61α Q294A; Drug nM (log10) -0.29409) of the same compound?
**A.** 89.6%

**Q.** What about the IC50 ([1]; Homo sapiens, PBMC, LPS-stimulation, read-out: IC50, IL-1β secretion) of the same compound?
**A.** > 25000 nM

**Q.** And the IC50 ([1]; Homo sapiens, PBMC, LPS-stimulation, read-out: IC50, IL-23 secretion)?
**A.** 167 nM

**Q.** And the IC50 ([1]; Homo sapiens, PBMC, anti-CD3/CD28-stimulation, read-out: IC50, GM-CSF secretion)?
**A.** 189 nM

**Q.** What about the IC50 ([1]; Homo sapiens, PBMC, anti-CD3/CD28-stimulation, read-out: IC50, IL-2 secretion) of the same compound?
**A.** 42.2 nM

**Q.** And the IC50 ([1]; Homo sapiens, PBMC, anti-CD3/CD28-stimulation, read-out: IC50, TNFα secretion)?
**A.** 42.6 nM

**Q.** And the IC50 ([1]; LPS-stimulation, read-out: IC50, IL-23 secretion)?
**A.** 233 nM and 188 nM and 190 nM

**Q.** What about the “IC50s, secretion of six of seven tested cytokines” value ([1]; activated human PBMCs and mouse splenocytes) of the same compound?
**A.** submicromolar

**Q.** What about the IC50 ([1]; anti-CD3/CD28-stimulation, read-out: IC50, GM-CSF secretion) of the same compound?
**A.** 185 nM and 222 nM and 212 nM

**Q.** And the IC50 ([1]; anti-CD3/CD28-stimulation, read-out: IC50, IL-2 secretion)?
**A.** 38.7 nM and 39 nM and 26.6 nM

**Q.** What about the IC50 ([1]; anti-CD3/CD28-stimulation, read-out: IC50, TNFα secretion) of the same compound?
**A.** 31.8 nM and 37.5 nM and 26.2 nM

**Q.** What about the “secretion of IL-1β” value ([1]; not Sec61-dependent) of the same compound?
**A.** unaffected

**Q.** And the “infectious virus particle production” value (SARS-CoV-2; 0.01 uM)?
**A.** 2000000 TCID50 per milliliter and 1175555 TCID50 per milliliter

**Q.** And the “infectious virus particle production” value (SARS-CoV-2; 10 uM)?
**A.** 928.318 TCID50 per milliliter and 632.456 TCID50 per milliliter

**Q.** What about the CoV-2 replication (SARS-CoV-2; Vero cells) of the same compound?
**A.** blocked

**Q.** What about the remaining activity at 0.00018303 µM (Sec61α R66I; HEK293, 24 h, read-out: luciferase reporter activity (% of no-drug control), R66I, Drug nM (log10) 0.18303) of the same compound?
**A.** 90.3%

**Q.** What about the remaining activity at 0.000660151 µM (Sec61α R66I; HEK293, 24 h, read-out: luciferase reporter activity (% of no-drug control), R66I, Drug nM (log10) 0.660151) of the same compound?
**A.** 85.2%

**Q.** And the remaining activity at 0.00113727 µM (Sec61α R66I; HEK293, 24 h, read-out: luciferase reporter activity (% of no-drug control), R66I, Drug nM (log10) 1.13727)?
**A.** 74.3%

**Q.** What about the remaining activity (Sec61α R66I; HEK293, 24 h, read-out: luciferase reporter activity (% of no-drug control), R66I, Drug nM (log10) 1.61439) of the same compound?
**A.** 58.4%

**Q.** And the remaining activity (Sec61α R66I; HEK293, 24 h, read-out: luciferase reporter activity (% of no-drug control), R66I, Drug nM (log10) 2.09151)?
**A.** 48.6%

**Q.** And the remaining activity (Sec61α R66I; HEK293, 24 h, read-out: luciferase reporter activity (% of no-drug control), R66I, Drug nM (log10) 2.56864)?
**A.** 41.2%

**Q.** What about the remaining activity (Sec61α R66I; HEK293, 24 h, read-out: luciferase reporter activity (% of no-drug control), R66I, Drug nM (log10) 3.04576) of the same compound?
**A.** 39.3%

**Q.** And the remaining activity (Sec61α R66I; HEK293, 24 h, read-out: luciferase reporter activity (% of no-drug control), R66I, Drug nM (log10) 3.52288)?
**A.** 35.2%

**Q.** What about the remaining activity at 0.004 µM (Sec61α R66I; HEK293, 24 h, read-out: luciferase reporter activity (% of no-drug control), R66I, Drug nM (log10) 4) of the same compound?
**A.** 39%

**Q.** What about the remaining activity at 0.00050805 µM (Sec61α R66I; HEK293, 24 h, read-out: luciferase reporter activity (% of no-drug control), R66I, Drug nM (log10) -0.29409) of the same compound?
**A.** 90%

**Q.** And the “effect of R66I mutation on sensitivity in secreted GLuc assay” value (Sec61α R66I; HEK293 cells)?
**A.** conferred resistance
